Data as given in US6753323B2, “Topical administration of amifostine and related compounds” (MedImmune Oncology, Inc., priority 1998, dated 2004).

Tests used:
rectal wall of rats = conditions: intrarectal injection of 2% amifostine gel; cited from earlier work
Staphylococcus aureus = assay: Microbial growth inhibition, refrigerated storage (2°-8° C.); format: cell-based; conditions: S. aureus, refrigerated 2°-8° C.; for % Change: vs theoretical 0 hr count
Protocol: (§1) Amifostine was studied for its ability to inhibit microbial growth. Clear 10 cc vials, stoppers and seals were sterilized for use in the study. Two separate procedures were performed: a refrigerated storage study (2° to 8° C.) and a room temperature storage study (20° to 25° C.). For each test portion, positive controls were prepared for each organism by placing 9.5 mL sterile 0.9% sodium chloride into separate sterile vials and inoculating each with 10^3 to 10^4 of one of the test organisms. In addition, amifostine test specimens were prepared for each test portion by reconstituting six Ethyol® vials with 0.9% sodium chloride, the contents of each of these vials were then transferred to clear sterile vials to allow for easier visual examination. One vial was designated as a negative control, and each of the remaining five vials was inoculated with 10^3 to 10^4 of one of the test organisms. All vials were protected from light throughout the test to simulate the amber Ethyol® vial.
(§2) Positive controls, product test specimens, and a negative control were prepared. At this time, population counts were performed on each positive control. Population counts were also performed on positive controls and product test specimens at 24, 48 and 72 hours. These samples were diluted with sterile water and plated in duplicate with a target of 30 to 300 colonies per plate. Candida albicans, Escherichia coli, Pseudomonas aeruginosa, and Staphylococcus aureus were overpoured with TSA agar and incubated at 30-35° C. for 48 hours. Aspergillus niger was overpoured with Sabouraud agar and incubated at 20-25° C. for 48 hours.

Pseudomonas aeruginosa = assay: as above; format: cell-based; conditions: P. aeruginosa, refrigerated 2°-8° C.; for % Change: vs theoretical 0 hr count
Protocol: as §1, §2

Aspergillus niger = assay: as above; format: cell-based; conditions: A. niger, refrigerated 2°-8° C.; for % Change: vs theoretical 0 hr count
Protocol: as §1, §2

small intestine of rats = conditions: 150 mg/mL in pH 9 Tris buffer, intralumenal; cited from earlier work

NCCCNCCSP(=O)(O)O [amifostine, S-2-(3-aminopropylamino)ethyl dihydrogen phosphorothioate]
tissue level of metabolite WR-1065 after topical application (rectal wall of rats): accumulation of the amifostine metabolite WR-1065 in the rectal wall | CFU/mL in Amifostine (Staphylococcus aureus; 24 hr): 4.75 × 10^1 CFU/mL | % Change (Staphylococcus aureus; 24 hr): −50.0% | CFU/mL in Amifostine (Staphylococcus aureus; 48 hr): 4.75 × 10^1 CFU/mL | % Change (Staphylococcus aureus; 48 hr): −50.0% | CFU/mL in Amifostine (Staphylococcus aureus; 72 hr): 4.75 × 10^1 CFU/mL | % Change (Staphylococcus aureus; 72 hr): −50.0% | CFU/mL in Amifostine (Pseudomonas aeruginosa; 24 hr): 3.04 × 10^3 CFU/mL | % Change (Pseudomonas aeruginosa; 24 hr): −20.0% | CFU/mL in Amifostine (Pseudomonas aeruginosa; 48 hr): 1.76 × 10^3 CFU/mL | % Change (Pseudomonas aeruginosa; 48 hr): −53.7% | CFU/mL in Amifostine (Pseudomonas aeruginosa; 72 hr): 1.85 × 10^3 CFU/mL | % Change (Pseudomonas aeruginosa; 72 hr): −51.3% | CFU/mL in Amifostine (Aspergillus niger; 24 hr): 1.78 × 10^5 CFU/mL | % Change (Aspergillus niger; 24 hr): −40.7% | CFU/mL in Amifostine (Aspergillus niger; 48 hr): 1.67 × 10^5 CFU/mL | % Change (Aspergillus niger; 48 hr): −44.3% | CFU/mL in Amifostine (Aspergillus niger; 72 hr): 1.67 × 10^5 CFU/mL | % Change (Aspergillus niger; 72 hr): −44.3% | radioprotection against intestinal mucositis (small intestine of rats): effective radioprotector
